Assays:
PAN02 tumors = assay: Orthotopic PAN02 PDAC model in obese C57BL/6 mice, metformin in drinking water; format: in vivo, mouse
Excerpt: (§1) Wild-type (WT) C57BL/6 and FVB male mice were originally obtained from The Jackson Laboratory (The Jackson Laboratory, Bar Harbor, Me.) and bred and maintained in our defined-flora animal facility. Mice were maintained on a 12-h light-dark cycle in a temperature-controlled barrier facility, with ad libitum access to food and acidified water. To generate obese/diabetic mouse models, mice (6-weeks old) were given a 60% fat diet (D12492, Research Diets, New Brunswick, N.J.) for 10 weeks as previously described (49-51). For tumor experiments, the PAN02 and AK4.4 syngeneic PDAC models were used in C57BL/6 and FVB immunocompetent mice, respectively. PAN02 cells (SMAD4-m174) (52) were obtained from ATCC. AK4.4 cells (KrasG12D and p53^+/−) were isolated from mice generating spontaneous pancreatic tumors (Pt∫1-Cre/LSL-Kras^G12D/p53^Loxi−) (53). Orthotopic pancreatic tumors were generated by implanting a small piece (1 mm^3) of viable tumor tissue (from a source tumor in a separate donor animal) into the pancreas of a 6-8- week-old male lean or obese FVB (AK4.4 model) or C57BL/6 (PAN02 model) mouse. Both tumor models used were authenticated by IDEXX Laboratories. (PAN02: IDEXX RADIL Case # 22366-2013. AK4.4: IDEXX RADIL Case # 27818-2014).
(§2) At day 21, plasma and tumor samples were collected, and tumors were weighed and processed for further analysis.
(§3) This can be translated to the human equivalent dose by using the Reagan-Shaw method (54). According to the formula for the human equivalent dose [(mg/kg)=animal dose (mg/kg)×animal (km)/human (km). Km for a 60 kg human adults equals 37 and for a 20 g mouse equals 3], the human equivalent of murine dose of 300 mg/kg is 1459 mg for an average sized 60 kg adult human. Therefore, the selected dose in the present study is within the safe therapeutic range recorded in humans. […] This was compatible with the therapeutic periods reported in previous studies (55, 56). […] The amount added to each animal cage was calculated based on the average daily water intake for that cage during a period of 2 weeks prior to treatment initiation, and adjusted every three days based on water consumption and body weight of the animals. […] For in vitro experiments, a range of concentration from 0.05 to 25 mM depending on the cell line used, as discussed below.
(§4) Immediately following excision, tumor tissue was snap frozen and stored in liquid nitrogen. Total RNA was extracted and relative gene expression for macrophage M1/M2 markers was determined using a Sybr-green based standard protocol. In addition, total RNA was extracted and relative gene expression was determined using RT2 Profiler PCR Arrays system (Qiagen) on a Stratagene Mx3000P QPCR System using pre-made pathway-focused arrays (“Fibrosis”-Cat. Number: PAMM011Z; “Epithelial to Mesenchymal Transition (EMT)”-Cat. Number: PAMM090Z; “TGF-β signaling targets”-PAMM235Z; “Extracellular Matrix & Adhesion Molecules”-Cat. Number: PAMM013Z; and “Common cytokines ”-Cat. Number: PAMM021Z).
(§5) Each tumor sample was homogenized directly in lysis buffer for protein extraction. 20 ug of denatured protein per sample was loaded on 7%, 10% and 12% SDS-polyacrylamide gels. Antibodies used: phospho-p38 MAPKT^180/Y182 and p38; phospho-JNK (SAPK/JNK)^Thr183/Tyr185 and JNK; phospho-AKT^Ser473 and AKT, phospho-ERK(p44/42 MAPK)^T202/Y204 and ERK; phospho-NF-κB^Ser536 and NK-κB; p65^Ser536; phospho-Smad2^Ser465/467 and Smad2; phospho-IGF-I Receptor β^Tyr1135 and IGF; Phospho-IRS-1^Ser612 and IRS; IR; phpspho-stat3^Tyr705 and stat3; Phospho-AMPKα^Thr172 and Ampkα; phospho-Ampkβ^Ser108 and Ampk; phospho-ACC^Ser79 and ACC; Phospho-PDGF Receptor β^Tyr751 and PDGF Receptor β and snail, c-cadherin and vimentin, TGF-β, β-catenin, twist, LC3B. […]

AK4.4 tumors = assay: Orthotopic AK4.4 PDAC model in obese FVB mice, metformin in drinking water; format: in vivo, mouse
Excerpt: as §1, §2, §3, §4, §5

[1] = TAMs from PAN02 tumors in vivo, qPCR
[2] = obese C57BL/6 mice, metformin 300 mg/Kg
[3] = particularly evident in the more metastatic model PAN02
[4] = obese FVB mice, metformin 300 mg/Kg
[5] = obese FVB mice, metformin 300 mg/Kg in drinking water
[6] = obese FVB mice, metformin 300 mg/Kg in drinking water, day 7 to 21

## CN(C)C(=N)N=C(N)N [metformin, 3-(diaminomethylidene)-1,1-dimethylguanidine]
PAN02 tumors; [1]
  expression of M1 markers in flow-sorted TAMs: without significantly affecting
  expression of M2 marker Arg-1 in flow-sorted TAMs: 1/2
  expression of M2 marker IL-10 in flow-sorted TAMs: 2/3
PAN02 tumors; Western blot
  activation and phosphorylation of IGFR-1 and IRS-1 in tumors: trend for reduced activation and phosphorylation
  activation of ACC in tumors: increased
  expression of the autophagy marker L3CB: unchanged
PAN02 tumors; Western blot, not significant
  average MMP-2 levels in metformin treated tumors: approximately half
PAN02 tumors; after metformin treatment
  IL-1β in tumors: reduction of IL-1β
PAN02 tumors; flow cytometry, not significant
  TAM levels lower with metformin treatment: ~30%
PAN02 tumors; [2]
  activation of STAT3 in whole tumors: decreased activation of STAT3
  p38 activation in whole tumors: trend for reduced p38
PAN02 tumors; obese C57BL/6 mice, metformin 300 mg/Kg in drinking water, did not reach statistical significance
  decreased expression of HA: 40%
PAN02 tumors; obese C57BL/6 mice, metformin 300 mg/Kg, did not reach significance
  reduced density of HA positive activated-PSCs: 57%
PAN02 tumors; obese C57BL/6 mice, metformin 300 mg/Kg, did not reach statistical significance
  decreased expression of collagen-I: 22%
PAN02 tumors; obese C57BL/6 mice, metformin 300 mg/Kg, significant
  reduced density of collagen-I positive activated PSCs in tumors: 54%
PAN02 tumors; [3]
  average number of mesenteric peritoneal and retroperitoneal wall metastasis per mouse: reduced
  incidence of metastasis (number of mice affected): reduced the incidence of metastasis
PAN02 tumors; tumor-bearing mice
  body weight: no change in body weight
AK4.4 tumors; PCR array, pooled samples
  expression of genes involved in ECM remodeling (including MMPs) and EMT: reduced the expression
AK4.4 tumors; Western blot
  E-cadherin, protein expression: increased
  EMT marker vimentin, protein expression: decreased
  activation of metabolic pathways in tumors: did not affect the activation of metabolic pathways
  expression of the autophagy marker L3CB: unchanged
AK4.4 tumors; Western blot, metformin 300 mg/Kg
  reduction of metalloproteinase 9 (MMP9) protein: 70%
AK4.4 tumors; compared to control mice
  MMP activity in tumors: decreased
AK4.4 tumors; [4]
  TAM levels lower with metformin treatment (F4/80): 60%
  activation of STAT3 in whole tumors: decreased activation of STAT3
  expression of IL-1β and CXCL-1 in tumors (multiplex protein array): reduced the expression of IL-1β and CXCL-1
AK4.4 tumors; [5]
  decrease of percentage of activated (αSMA) PSCs that co-express HA: 58%
  decrease of percentage of activated (αSMA) PSCs that co-express collagen-I: 38%
  expression of AT1 in tumors (Western blot): reduce the expression of AT1
AK4.4 tumors; [6]
  reduced expression of HA: 64%
  reduced expression of collagen-I: 35%
AK4.4 tumors; tumor-bearing mice
  body weight: no change in body weight

From patent US20180064662A1 (THE GENERAL HOSPITAL CORPORATION, priority 2015, published 2018)
